From US20100036088A1, “Selective poly-N-substituted glycine antibiotics” (priority 2008, published 2010)
Values after ≈ are worked out from the molar mass of the structure shown. Like-named read-outs stand apart in the source and are kept apart here. Numbered stars: 1 amine (or outer) side, 2 acyl side, 3 side chain; on linkers, the order of the positions; unused ones are H or OH. Square brackets hold non-standard residues; d marks the D form. Peptide text beside a SMILES is read from it. X2 = CCC[C@H](C)N(CC(=O)[*:2])[*:1]; Nspe = C[C@H](NCC(=O)O)c1ccccc1; Nlys = NCCCCNCC(=O)O

What was measured:
human erythrocytes = experiment: Hemolysis assay; format: cell-based; details: for HD10 (10% hemolytic dose) / HD50 (50% hemolytic dose): red cells of human, 1 h
How it was run: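 Human erythrocytes from fresh heparinised blood, 20 vol % in PBS pH 7.4, mixed 1:1 with 2-fold serial peptoid dilutions; PBS as 0% and 0.2 vol % Triton X-100 as 100% hemolysis. Incubated 1 h at 37 °C, diluted, centrifuged 1200 g for 15 min; supernatant A350 read.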

[1] = system: A549 lung epithelial cells; experiment: MTS assay, metabolic inhibition; details: A549 cells, MTS assay, FIG. 2
Experimental: The biocompatibility of selected oligomers with A549 lung epithelial cells was evaluated using the MTS [3-(4,5-dimethylthiazol-2-yl)-5-(3-carboxymethoxyphenyl)-2-(4-sulfophenyl)-2H-tetrazolium] assay.
MTS Assays. A549 carcinoma-derived lung epithelial cells (ATTC CCL-185) were cultured in Ham's F12K media (ATTC, Manassas, Va.). A peptoid solution plate (100 μL/well) was prepared by serial dilution of aqueous peptoid stocks in media. Peptoid solutions were transferred onto a 96-well plate of day-old cell monolayers containing 100 μL/well media with ˜5000 cells/well. MTS reagent (Promega Corporation, Madison, Wis.) (40 μL/well) was added to each well and the plate was incubated at 37° C. for 3 h, after which absorbance at 490 nm was determined. Percent inhibition was determined as [1−(A−Atest blank)/(Acontrol−Ablank)]×100, where A is the absorbance of the test well and Acontrol the average absorbance of wells with cells exposed to media and MTS (no peptoid). Atest blank (media, MTS, and peptoid) and Ablank (media and MTS) were background absorbances measured in the absence of cells. The average of six replicates are reported, and error bars show one standard deviation.

[2] = RP-HPLC elution solvent composition as measure of molecular hydrophobicity; format: physicochemical
Text: An initial set of 15 ampetoid analogs was synthesized to determine whether peptoids are affected by structural and sequence modifications in a manner consistent with AMP activities. The designs for ampetoids in this library were derived from two antibacterial and selective amphipathic dodecamers, 1 and 2. Peptoid 1 [H-(Nlys-Nspe-Nspe)4—NH2] is composed of 2/3 Nspe, the peptoid analog of phenylalanine, and 1/3 Nlys, the peptoid analog of lysine (see FIG. 1 for the structures of representative peptoid monomers and corresponding N-substituents). Peptoid 2 [H-(Nlys-Nssb-Nspe)4—NH2] contains 1/3 isoleucine-like Nssb monomers in place of Nspe. The variant sequences were designed to effect changes in chirality, length, hydrophobicity, charge, and amphipathicity. All of these compounds were tested for antibacterial activity against representative BSL1 Gram-negative (E. coli JM109) and Gram-positive (B. subtilis BR151) bacterial strains. As an initial measure of selectivity, the lytic activity of the peptoids was determined against human erythrocytes. Table 1 summarizes the sequences synthesized, the solvent composition at RP-HPLC elution as a relative measure of molecular hydrophobicity, and antibacterial and hemolytic activities.
Following synthesis, peptoid oligomers can be cleaved from the resin, simultaneously removing the tert-butoxycarbonyl (Boc) protecting group from Nlys residues, by treatment with 10 ml 2,2,2-trifluoroacetic acid (TFA)/triisopropylsilane/H2O (95:2.5:2.5 by volume) for 30 min. The cleavage mixture is then diluted with 25 ml 50% aqueous acetonitrile, frozen, and lyophilized. Dilution and lyophilization is repeated twice more in order to remove excess TFA. Subsequent to cleavage, peptoids are each purified to >97% homogeneity by preparative scale reversed-phase HPLC using a Waters Prep LC 4000 system, with Waters 2487 dual-wavelength UV detection, and gradient elution (solvent A, 0.1 vol % trifluoroacetic acid (TFA) in water; solvent B, 0.1 vol % TFA in acetonitrile) through a Vydac (Hysperia, Calif.) 214TP101550 C4 peptide/protein column (10-15 μm, 300 Å, 5×25 cm). Following prep HPLC, peptoid purities and crude yields were determined from analytical scale HPLC, performed with a Waters 2695 Separations Module with a Waters 2487 dual-wavelength UV detector and gradient elution (solvent A, 0.1 vol % TFA in water; solvent B, 0.1 vol % TFA in acetonitrile) through a Vydac C4 214TP53 peptide/protein column (5 μm, 300 Å, 3.2×250 mm). The precise gradient employed for HPLC depended on the identity and hydrophobicity of the oligomer in question. All analytical HPLC was performed at 0.5 ml/min flow and 58° C. Preparative HPLC was performed at 50 ml/min flow and room temperature.

B. subtilis (ATCC 6633) = format: cell-based; details: ATCC 6633
How it was run: (§1)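 MICs by broth microdilution per CLSI M7-A6 in cation-adjusted Mueller-Hinton broth, using 2:1 serial dilutions of peptoid and a bacterial inoculum of 1×10^6 CFU/mL. Values reproducible over three experiments, each with two parallel trials.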

E. coli (ATCC 35218) = format: cell-based; details: ATCC 35218
How it was run: as §1

[3] = MTS assay, metabolic inhibition; format: cell-based, mouse
How it was run: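 NIH/3T3 cells seeded at 5,000 per well, grown a day, then exposed to serially diluted peptoids in HBSS together with MTS reagent. Absorbance at 490 nm read after 3 hours at 37° C.; mean of six replicates.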

[4] = system: Enterobacter aerogenes ATCC 35029; format: cell-based; details: ATCC 35029
Experimental: (§2) Antibacterial assays. MICs were determined according to CLSI M7-A6 protocols in a 96-well microtiter plate. In test wells, 50 μL bacterial inoculum (5×10^5 CFU/ml) in Mueller-Hinton broth (MHB) was added to 50 μL peptoid solution in MHB (prepared by 1:2 serial dilutions). Positive controls contained 50 μL inoculum and 50 μL MHB without peptoid. […] MIC values reported were reproducible between three independent experimental replicates, each consisting of two parallel trials. Broad-spectrum antimicrobial susceptibility testing was performed against BSL2 pathogens by Nova Biologicals, Inc. (Conroe, Tex.).
(§3) Broad-spectrum antibacterial assays. MICs of compounds were determined by microdilution procedure in Mueller-Hinton broth (MHB) in accordance with CLSI M7-A6 protocols in a manner similar to that described for the screen antibacterial assays. Inoculated microtiter plates were incubated at 35° C. for 24 hours prior to the result being recorded. Four ATCC strains that were used as standards are recommended by CLSI: Pseudomonas aeruginosa ATCC 27853, Escherichia coli ATCC 25922, Staphylococcus aureus ATCC 29213 and Enterococcus faecalis ATCC 29212. Other strains from the ATCC collection include Proteus vulgaris ATCC 49132, Proteus mirabilis ATCC 35659, Klebsiella pneumoniae ATCC 33495, Enterobacter aerogenes ATCC 35029 and Serratia marcescens ATCC 13880. S. aureus NRS100 (COL) is a well characterized methicillian-resistant S. aureus (MRSA) strain. The strains S. aureus VAN1 and S. aureus VAN2, vancomycin-resistant MRSA strains that were isolated in Michigan and Pennsylvania, were the first vancomycin-resistant strains clinically isolated. S. aureus NRS119 and S. aureus NRS120 are linezolid-resistant isolates from the Network on Antimicrobial Resistance in S. aureus (NARSA) collection. E. faecalis 99 and E. faecium 106 are vancomycin-resistant enterococcal strains.

Enterococcus faecalis 99 = format: cell-based; details: 99
Experimental: as §2, §3

[5] = system: Enterococcus faecalis ATCC 29212; format: cell-based; details: ATCC 29212
Experimental: as §2, §3

Enterococcus faecium 106 = format: cell-based; details: 106
Experimental: as §2, §3

[6] = system: Escherichia coli ATCC 25922; format: cell-based; details: ATCC 25922
Experimental: as §2, §3

[7] = system: Klebsiella pneumoniae ATCC 33495; format: cell-based; details: ATCC 33495
Experimental: as §2, §3

[8] = system: Proteus mirabilis ATCC 35659; format: cell-based; details: ATCC 35659
Experimental: as §2, §3

[9] = system: Proteus vulgaris ATCC 49132; format: cell-based; details: ATCC 49132
Experimental: as §2, §3

[10] = system: Pseudomonas aeruginosa ATCC 27853; format: cell-based; details: ATCC 27853
Experimental: as §2, §3

[11] = system: Serratia marcescens ATCC 13880; format: cell-based; details: ATCC 13880
Experimental: as §2, §3

[12] = system: Staphylococcus aureus ATCC 29213; format: cell-based; details: ATCC 29213
Experimental: as §2, §3

[13] = system: Staphylococcus aureus NRS100 (COL); format: cell-based; details: NRS100 (COL)
Experimental: as §2, §3

[14] = system: Staphylococcus aureus NRS119; format: cell-based; details: NRS119
Experimental: as §2, §3

[15] = system: Staphylococcus aureus NRS120; format: cell-based; details: NRS120
Experimental: as §2, §3

[16] = system: Staphylococcus aureus VAN1; format: cell-based; details: VAN1
Experimental: as §2, §3

[17] = system: Staphylococcus aureus VAN2; format: cell-based; details: VAN2
Experimental: as §2, §3

SMILES: C[C@@H](c1ccccc1)N(CC(N)=O)C(=O)CN(C(=O)CN(CCCCN)C(=O)CN(C(=O)CN(C(=O)CN(CCCCN)C(=O)CN(C(=O)CN(C(=O)CN(CCCCN)C(=O)CN(C(=O)CN(C(=O)CN(CCCCN)C(=O)CN(C(=O)CN(C(=O)CNCCCCN)[C@@H](C)c1ccccc1)[C@@H](C)c1ccccc1)[C@@H](C)c1ccccc1)[C@@H](C)c1ccccc1)[C@@H](C)c1ccccc1)[C@@H](C)c1ccccc1)[C@@H](C)c1ccccc1)[C@@H](C)c1ccccc1)[C@@H](C)c1ccccc1 [115 mer, H-(Nlys-Nspe-Nspe)5-NH2]
- HD10 (10% hemolytic dose) (human erythrocytes): 3 µM
- HD50 (50% hemolytic dose) (human erythrocytes): 19 µM
- cytotoxicity (in words) [1]: no worse than pexiganan

SMILES: CCC[C@H](C)N(CC(=O)N(CC(N)=O)[C@@H](C)c1ccccc1)C(=O)CN(CCCCN)C(=O)CN(C(=O)CN(C(=O)CN(CCCCN)C(=O)CN(C(=O)CN(C(=O)CN(CCCCN)C(=O)CN(C(=O)CN(C(=O)CNCCCCN)[C@@H](C)CCC)[C@@H](C)c1ccccc1)[C@@H](C)CCC)[C@@H](C)c1ccccc1)[C@@H](C)CCC)[C@@H](C)c1ccccc1 [2-Nsap2,5,8,11] (H-[Nlys][X2][Nspe][Nlys][X2][Nspe][Nlys][X2][Nspe][Nlys][X2][Nspe]-NH2)
- HD10 (10% hemolytic dose) (human erythrocytes): >120/>120 μM
- HD50 (50% hemolytic dose) (human erythrocytes): >120/>120 μM
- HPLC elution solvent ([2]; Table 1, percent acetonitrile in water, 0.1% (v/v) TFA at HPLC elution): 48%

SMILES: CC(C)[C@H](C)N(CC(N)=O)C(=O)CN(C(=O)CN(CCCCN)C(=O)CN(C(=O)CN(C(=O)CN(CCCCN)C(=O)CN(C(=O)CN(C(=O)CN(CCCCN)C(=O)CN(C(=O)CN(C(=O)CNCCCCN)[C@@H](C)C(C)C)[C@@H](C)C(C)C)[C@@H](C)C(C)C)[C@@H](C)C(C)C)[C@@H](C)C(C)C)[C@@H](C)C(C)C)[C@@H](C)C(C)C [1-Nsdpall, H-(Nlys-Nsdp-Nsdp)4-NH2]
- HD10 (human erythrocytes): >200/>200 μM
- HD50 (human erythrocytes): >200/>200 μM
- B. subtilis MIC (B. subtilis (ATCC 6633); Table 6): 0.78 µM
- E. coli MIC (E. coli (ATCC 35218)): 50 µM
- E. coli MIC (E. coli (ATCC 35218); Table 6): 25 µM
- IC50 [3]: 64 µM
- HPLC elution (% ACN) ([2]; Table 5, average of three injections, linear 5%-95% acetonitrile/water (0.1% TFA) over 45 minutes, C18 column, measure of hydrophobicity): 63.2 % ACN

SMILES: C[C@@H](c1ccccc1)N(CC(N)=O)C(=O)CN(C(=O)CN(CCCCN)C(=O)[C@@H]1CCCN1C(=O)CN(C(=O)CN(CCCCN)C(=O)CN(C(=O)CN(C(=O)CN(CCCCN)C(=O)CN(C(=O)CN(C(=O)CNCCCCN)[C@@H](C)c1ccccc1)[C@@H](C)c1ccccc1)[C@@H](C)c1ccccc1)[C@@H](C)c1ccccc1)[C@@H](C)c1ccccc1)[C@@H](C)c1ccccc1 [1-Pro9, H-(Nlys-Nspe2)2-Nlys-Nspe-L-Pro-(Nlys-Nspe2)-NH2] (H-[Nlys][Nspe][Nspe][Nlys][Nspe][Nspe][Nlys][Nspe]P[Nlys][Nspe][Nspe]-NH2)
- HD10 (human erythrocytes): 165 µM
- HD50 (human erythrocytes): > 200 µM
- B. subtilis MIC (B. subtilis (ATCC 6633)): 1.6 µM
- E. coli MIC (E. coli (ATCC 35218)): 12.5 µM
- IC50 [3]: 24 µM
- MIC Enterobacter aerogenes ATCC 35029 [4]: 36.5 µM (≈ 64.1 µg/mL)
- MIC Enterococcus faecalis 99 (Enterococcus faecalis 99): 36.5 µM (≈ 64.1 µg/mL)
- MIC Enterococcus faecalis ATCC 29212 [5]: 4.6 µM (≈ 8.07 µg/mL)
- MIC Enterococcus faecium 106 (Enterococcus faecium 106): 2.3 µM (≈ 4.04 µg/mL)
- MIC Escherichia coli ATCC 25922 [6]: 4.6 µM (≈ 8.07 µg/mL)
- MIC Klebsiella pneumoniae ATCC 33495 [7]: 9.1 µM (≈ 16 µg/mL)
- MIC P. mirabilis ATCC 35659 [8]: >128 µg/mL
- MIC Proteus mirabilis ATCC 35659 [8]: >72.9 µM
- MIC Proteus vulgaris ATCC 49132 [9]: 36.5 µM (≈ 64.1 µg/mL)
- MIC Pseudomonas aeruginosa ATCC 27853 [10]: 18.2 µM (≈ 31.9 µg/mL)
- MIC S. marcescens ATCC 13880 [11]: >128 µg/mL
- MIC Serratia marcescens ATCC 13880 [11]: >72.9 µM
- MIC Staphylococcus aureus ATCC 29213 [12]: 9.1 µM (≈ 16 µg/mL)
- MIC Staphylococcus aureus NRS100 (COL) [13]: 4.6 µM (≈ 8.07 µg/mL)
- MIC Staphylococcus aureus NRS119 [14]: 9.1 µM (≈ 16 µg/mL)
- MIC Staphylococcus aureus NRS120 [15]: 9.1 µM (≈ 16 µg/mL)
- MIC Staphylococcus aureus VAN1 [16]: 4.6 µM (≈ 8.07 µg/mL)
- MIC Staphylococcus aureus VAN2 [17]: 4.6 µM (≈ 8.07 µg/mL)
